The source made the active and inactive calls. No cut-off for these calls is given here.
How the values were obtained:
[1] = Cell cycle arrest in human ATRA-resistant NB4-LR2 cells assessed as accumulation of cells at G0/G1 phase at 0.5 uM incubated for 24 hrs by DAPI staining based flow cytometric analysis (reference value: 42 %); assay type: functional
[2] = Induction of apoptosis in human ATRA-resistant NB4-LR2 cells assessed as early apoptotic cells at 1 uM incubated for 24 hrs by Annexin V-FITC/PI staining based flow cytometric analysis (reference value: 1.41 %); assay type: functional
[3] = Cell cycle arrest in human ATRA-resistant NB4-LR2 cells assessed as accumulation of cells at G2/M phase at 2 uM incubated for 12 hrs by DAPI staining based flow cytometric analysis (reference value: 15 %); assay type: functional
[4] = Cell cycle arrest in human ATRA-resistant NB4-LR2 cells assessed as accumulation of cells at S phase at 2 uM incubated for 12 hrs by DAPI staining based flow cytometric analysis (reference value: 19 %); assay type: functional
[5] = biological target: T1, Retinoic acid receptor alpha (Homo sapiens, UniProt P10276); assay: Binding affinity to N-terminal His-tagged human RARalpha LBD extracted from Escherichia coli BL21 (DE3) cells assessed as dissociation constant by ITC analysis
T1 sequence (P10276 whole entry): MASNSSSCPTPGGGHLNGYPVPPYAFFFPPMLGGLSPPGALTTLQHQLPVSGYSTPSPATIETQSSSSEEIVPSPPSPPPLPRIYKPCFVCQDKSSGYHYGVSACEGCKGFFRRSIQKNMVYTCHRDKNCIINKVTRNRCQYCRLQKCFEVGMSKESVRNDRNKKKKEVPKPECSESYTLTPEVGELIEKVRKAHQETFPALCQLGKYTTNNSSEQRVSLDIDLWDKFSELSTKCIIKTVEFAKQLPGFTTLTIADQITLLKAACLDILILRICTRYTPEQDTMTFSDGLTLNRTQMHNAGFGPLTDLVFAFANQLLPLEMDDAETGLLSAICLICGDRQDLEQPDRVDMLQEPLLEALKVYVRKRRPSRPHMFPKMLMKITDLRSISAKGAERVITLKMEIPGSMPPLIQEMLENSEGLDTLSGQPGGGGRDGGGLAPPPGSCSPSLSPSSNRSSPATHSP

[6] = Cell cycle arrest in human ATRA-resistant NB4-LR2 cells assessed as accumulation of cells at S phase at 2 uM incubated for 24 hrs by DAPI staining based flow cytometric analysis (reference value: 21 %); assay type: functional
NB-4 [7] = assay: Induction of apoptosis in human NB4 cells assessed as late apoptotic cells at 1 uM incubated for 24 hrs by Annexin V-FITC/PI staining based flow cytometric analysis (reference value: 2.23 %); assay type: functional
[8] = Cell cycle arrest in human ATRA-resistant NB4-LR2 cells assessed as accumulation of cells at G0/G1 phase at 2 uM incubated for 24 hrs by DAPI staining based flow cytometric analysis (reference value: 42 %); assay type: functional
NB-4 [9] = assay: Cell cycle arrest in human NB4 cells assessed as accumulation of cells at G0/G1 phase at 2 uM incubated for 12 hrs by DAPI staining based flow cytometric analysis (reference value: 56 %); assay type: functional
NB-4 [10] = assay: Cell cycle arrest in human NB4 cells transfected with pLVX-shRXRalpha plasmid assessed as accumulation of cells at sub-G1 phase at 2 uM incubated for 12 hrs by DAPI staining based flow cytometric analysis (reference value: 10 %); assay type: functional
NB-4 [11] = assay: Cell cycle arrest in human NB4 cells assessed as accumulation of cells at S phase at 2 uM incubated for 12 hrs by DAPI staining based flow cytometric analysis (reference value: 20 %); assay type: functional
NB-4 [12] = assay: Cell cycle arrest in human NB4 cells assessed as accumulation of cells at sub-G1 phase at 0.5 uM incubated for 24 hrs by DAPI staining based flow cytometric analysis (reference value: 3 %); assay type: functional
NB-4 [13] = assay: Cell cycle arrest in human NB4 cells assessed as accumulation of cells at G0/G1 phase at 0.5 uM incubated for 24 hrs by DAPI staining based flow cytometric analysis (reference value: 48 %); assay type: functional
[14] = Cell cycle arrest in human ATRA-resistant NB4-LR2 cells assessed as accumulation of cells at G2/M phase at 1 uM incubated for 24 hrs by DAPI staining based flow cytometric analysis (reference value: 25 %); assay type: functional
NB-4 [15] = assay: Cell cycle arrest in human NB4 cells assessed as accumulation of cells at sub-G1 phase at 1 uM incubated for 12 hrs by DAPI staining based flow cytometric analysis (reference value: 2 %); assay type: functional
[16] = Cell cycle arrest in human ATRA-resistant NB4-LR2 cells assessed as accumulation of cells at sub-G1 phase at 2 uM incubated for 3 hrs by DAPI staining based flow cytometric analysis (reference value: 9 %); assay type: functional
NB-4 [17] = assay: Cell cycle arrest in human NB4 cells assessed as accumulation of cells at sub-G1 phase at 2 uM incubated for 3 hrs by DAPI staining based flow cytometric analysis (reference value: 3 %); assay type: functional
[18] = Cell cycle arrest in human ATRA-resistant NB4-LR2 cells assessed as accumulation of cells at G0/G1 phase at 2 uM incubated for 6 hrs by DAPI staining based flow cytometric analysis (reference value: 57 %); assay type: functional
NB-4 [19] = assay: Cell cycle arrest in human NB4 cells assessed as accumulation of cells at S phase at 2 uM incubated for 24 hrs by DAPI staining based flow cytometric analysis (reference value: 26 %); assay type: functional
[20] = Cell cycle arrest in human ATRA-resistant NB4-LR2 cells assessed as accumulation of cells at sub-G1 phase at 1 uM incubated for 12 hrs by DAPI staining based flow cytometric analysis (reference value: 18 %); assay type: functional
NB-4 [21] = assay: Cell cycle arrest in human NB4 cells transfected with pLVX-shRNA2-negative control assessed as accumulation of cells at G2/M phase at 2 uM incubated for 12 hrs by DAPI staining based flow cytometric analysis (reference value: 24 %); assay type: functional
NB-4 [22] = assay: Cell cycle arrest in human NB4 cells assessed as accumulation of cells at G2/M phase at 1 uM incubated for 12 hrs by DAPI staining based flow cytometric analysis (reference value: 26 %); assay type: functional
NB-4 [23] = assay: Cell cycle arrest in human NB4 cells transfected with pLVX-shPML-RARalpha plasmid assessed as accumulation of cells at G2/M phase at 1 uM incubated for 12 hrs by DAPI staining based flow cytometric analysis (reference value: 22 %); assay type: functional
NB-4 [24] = assay: Cell cycle arrest in human NB4 cells assessed as accumulation of cells at S phase at 2 uM incubated for 3 hrs by DAPI staining based flow cytometric analysis (reference value: 20 %); assay type: functional
NB-4 [25] = assay: Cell cycle arrest in human NB4 cells transfected with pLVX-shRXRalpha plasmid assessed as accumulation of cells at G0/G1 phase at 1 uM incubated for 12 hrs by DAPI staining based flow cytometric analysis (reference value: 53 %); assay type: functional
ATRA-resistant NB4-LR2 [26] = assay: Cell cycle arrest in human ATRA-resistant NB4-LR2 cells transfected with pLVX-shRXRalpha assessed as increase in PLK1 expression at 1 uM incubated for 12 hrs by Western blot analysis; assay type: functional, cell-based
ATRA-resistant NB4-LR2 [27] = assay: Cell cycle arrest in human ATRA-resistant NB4-LR2 cells assessed as accumulation of cells at G2/M phase at 2 uM incubated for 3 to 12 hrs by DAPI staining based flow cytometric analysis; assay type: functional; conditions: time 3-12 hrs

With Cc1cc2c(cc1C(=O)/C(Br)=C/c1ccc(C(=O)O)cc1)C(C)(C)CCC2(C)C as the compound, how does the Activity [1] read?
The Activity was 37%.

And the Activity [2]?
Its Activity is 27.7%.

What about the Activity [3] of the same compound?
Its Activity is 22%.

What about the Activity [4] of the same compound?
Its Activity is 10%.

And the Kd [5]?
The Kd was 1080 nM.

What about the Activity [6] of the same compound?
Its Activity is 22%.

And the Activity (NB-4 [7])?
Its Activity is 18.68%.

What about the Activity [8] of the same compound?
The Activity was 34%.

What about the Activity (NB-4 [9]) of the same compound?
The Activity was 11%.

And the Activity (NB-4 [10])?
Its Activity is 12%.

What about the Activity (NB-4 [11]) of the same compound?
The Activity was 22%.

What about the Activity (NB-4 [12]) of the same compound?
The Activity was 5%.

What about the Activity (NB-4 [13]) of the same compound?
The Activity was 59%.

And the Activity [14]?
The Activity was 30%.

What about the Activity (NB-4 [15]) of the same compound?
Its Activity is 5%.

And the Activity [16]?
Its Activity is 13%.

What about the Activity (NB-4 [17]) of the same compound?
Its Activity is 3%.

What about the Activity [18] of the same compound?
The Activity was 45%.

And the Activity (NB-4 [19])?
Its Activity is 19%.

And the Activity [20]?
Its Activity is 21%.

What about the Activity (NB-4 [21]) of the same compound?
Its Activity is 44%.

What about the Activity (NB-4 [22]) of the same compound?
The Activity was 61%.

What about the Activity (NB-4 [23]) of the same compound?
The Activity was 27%.

And the Activity (NB-4 [24])?
The Activity was 21%.

And the Activity (NB-4 [25])?
The Activity was 36%.

What about the Activity (ATRA-resistant NB4-LR2 [26]) of the same compound?
Its Activity is “inactive”.

Which Activity (ATRA-resistant NB4-LR2 [27]) does the source give for Cc1cc2c(cc1C(=O)/C(Br)=C\c1ccc(C(=O)O)cc1)C(C)(C)CCC2(C)C here?
Its Activity is “Active”.
